Test results published in ChEMBL document CHEMBL1141813, “Activities of plant-derived phenols in a fibroblast cell culture model” (J Nat Prod, 1999).
The source made the active and inactive calls. The rule behind the calls is not given here.

How the values were obtained:
[1] = (§1) Growth inhibition of BALB/c mouse cloned 3T3/A31 cells after 72 hrs by nigrosin assay; format: functional, cell-based; conditions: BALB/3T3, 72 h
BALB/3T3 [2] = test: as §1; format: functional, cell-based
BALB/3T3 [3] = test: Growth inhibition of BALB/c mouse cloned 3T3/A31 cells at 10 to 100 ug/mL after 72 hrs by nigrosin assay; format: functional, cell-based
BALB/3T3 [4] = test: Stimulation of BALB/c mouse cloned 3T3/A31 cells growth at 0.01 to 0.1 ug/mL; format: functional
BALB/3T3 [5] = test: Growth inhibition of BALB/c mouse cloned 3T3/A31 cells at 100 ug/mL after 72 hrs by nigrosin assay; format: functional, cell-based
BALB/3T3 [6] = test: Stimulation of BALB/c mouse cloned 3T3/A31 cells growth at 0.01 to 1 ug/mL; format: functional
BALB/3T3 [7] = test: Cytotoxicity against BALB/c mouse cloned 3T3/A31 cells at 1 to 100 ug/mL after 72 hrs by nigrosin assay; format: functional, cell-based
BALB/3T3 [8] = test: Stimulation of BALB/c mouse cloned 3T3/A31 cells proliferation at 0.01 to 10 ug/mL; format: functional, cell-based
[9] = Stimulation of BALB/c mouse cloned 3T3/A31 cells proliferation at 0.01 ug/mL; format: functional, BALB/3T3
BALB/3T3 [10] = test: Growth inhibition of BALB/c mouse cloned 3T3/A31 cells at 0.01 to 100 ug/mL after 72 hrs by nigrosin assay; format: functional, cell-based

Row | Structure (SMILES) | IC50 [1] | Activity (BALB/3T3 [2]) | Activity (BALB/3T3 [3]) | also measured
1 | O=C(O)/C=C/c1ccccc1 [CINNAMIC ACID] | 671 µM | Dose-dependent effect | Active | 
2 | O=c1c(O)c(-c2ccc(O)c(O)c2)oc2cc(O)cc(O)c12 [QUERCETIN] | 217 µM | Dose-dependent effect | Active | Activity (BALB/3T3 [4]): 5.3%
3 | COc1ccc(/C=C/C(=O)O)cc1OC [O,O'-DIMETHYLCAFFEIC ACID] | > 480 µM | Dose-dependent effect | Active | 
4 | COc1ccc(-c2coc3cc(O)cc(O)c3c2=O)cc1 [BIOCHANIN] | 220 µM | Dose-dependent effect | Active | 
5 | O=C(/C=C/c1ccc(O)c(O)c1)O[C@@H]1C[C@](O)(C(=O)O)C[C@@H](O)[C@H]1O [CHLOROGENIC ACID] | > 280 µM | Dose-dependent effect |  | Activity (BALB/3T3 [5]): Active; Activity (BALB/3T3 [4]): 5.3%
6 | C[C@@H]1O[C@@H](Oc2c(-c3ccc(O)c(O)c3)oc3cc(O)cc(O)c3c2=O)[C@H](O)[C@H](O)[C@H]1O [QUERCITRIN] | > 223 µM | Dose-dependent effect |  | Activity (BALB/3T3 [5]): Active; Activity (BALB/3T3 [6]): 4.9%
7 | O=c1c(-c2ccc(O)cc2)coc2cc(O)cc(O)c12 [GENISTEIN] | 184 µM | Dose-dependent effect |  | Activity (BALB/3T3 [7]): Active; Activity (BALB/3T3 [4]): 5.3%
8 | O=C(O)/C=C/c1ccc(O)c(O)c1 [CAFFEIC ACID] | 554 µM | Dose-dependent effect | Active | 
9 | C[C@@H]1O[C@@H](OC[C@H]2O[C@@H](Oc3c(-c4ccc(O)c(O)c4)oc4cc(O)cc(O)c4c3=O)[C@H](O)[C@@H](O)[C@@H]2O)[C@H](O)[C@H](O)[C@H]1O [RUTIN] | > 164 µM | Dose-dependent effect |  | Activity (BALB/3T3 [8]): Active; Activity [9]: 30.4%
10 | O=c1cc(-c2ccccc2)oc2cc(O)cc(O)c12 [CHRYSIN] | 248 µM | Dose-dependent effect |  | Activity (BALB/3T3 [7]): Active
11 | O=c1cc(-c2ccccc2)oc2ccccc12 [FLAVONE] | 287 µM | Dose-dependent effect |  | Activity (BALB/3T3 [7]): Active
12 | O=c1cc(-c2ccccc2)oc2cc(O)c(O)c(O)c12 [BAICALEIN] | 342 µM | Dose-dependent effect | Active | 
13 | Oc1cc(O)c2c(c1)OC(c1ccc(O)c(O)c1)C(O)C2 (configuration not stated) [CATECHIN] | > 344 µM | Dose-dependent effect | Active | 
14 | O=c1cc(-c2ccc(O)cc2)oc2cc(O)cc(O)c12 [APIGENIN] | 141 µM | Dose-dependent effect |  | Activity (BALB/3T3 [10]): Active
